# Earlier results in US6040300A, “Method of preventing colon cancer with vitamin D3 analogues” (Arch Development Corporation, priority 1995, dated 2000).
# Experiments:
# [1] = tested on: chemically-induced colonic tumors; conditions: in vivo; cited from earlier work
# class II antigens = conditions: monocytes and lymphocytes; cited from earlier work
# c-myc mRNA = conditions: HL-60 cells; cited from earlier work
# [2] = tested on: ornithine decarboxylase (ODC); conditions: induced by various chemical carcinogens, preneoplastic period; cited from earlier work
# [3] = tested on: malignant cell lines, including several derived from human colon adenocarcinomas; conditions: in vitro; cited from earlier work
# suppressor T cell = conditions: cited from earlier work
# [4] = tested on: MHC class I and II antigens; conditions: colonic tumor formation, AOM model; cited from earlier work
# AOM metabolism = conditions: cited from earlier work
# [5] = tested on: colon carcinogenesis induced by 1,2-dimethylhydrazine (DMH); conditions: dietary supplementation; high fat diet; cited from earlier work
compound,measurement,setting,value
"C=C1/C(=C\C=C2/CCC[C@]3(C)[C@@H]([C@H](C)CCCC(C)C)CC[C@@H]23)C[C@@H](O)C[C@@H]1O [1α(OH)D3, 1α-hydroxyvitamin D3]",protection against chemically-induced colonic tumors,[1],protect against the development of chemically-induced colonic tumors
"C=C1/C(=C\C=C2/CCC[C@]3(C)[C@@H]([C@H](C)CCCC(C)(C)O)CC[C@@H]23)C[C@@H](O)C[C@@H]1O [1α,25(OH)2 D3, 1α,25-dihydroxyvitamin D3]",expression of class II antigens,class II antigens,effect the expression of class II antigens by monocytes and lymphocytes
same,c-myc mRNA expression,c-myc mRNA,decrease c-myc mRNA expression in HL-60 cells
same,inhibition of increase in colonic mucosal ODC,[2],inhibit the increase in colonic mucosal ODC
same,inhibition of proliferation,[3],inhibit the proliferation of a number of malignant cell lines in vitro
same,suppressor T cell activity,suppressor T cell,promote suppressor T cell activity
same,protection against chemically-induced colonic tumors,[1],protect against the development of chemically-induced colonic tumors
CN1C(C(=O)Nc2ccccn2)=C(O)c2ccccc2S1(=O)=O [piroxicam],chemopreventive effect paralleled by MHC antigen alterations,[4],paralleled by alterations in the expression of these antigens
c1cn[nH]c1 [pyrazole],inhibition of AOM metabolism,AOM metabolism,inhibition of AOM metabolism
C[C@H](CCC(=O)O)[C@H]1CC[C@H]2[C@@H]3[C@@H](O)C[C@@H]4C[C@H](O)CC[C@]4(C)[C@H]3CC[C@]12C [ursodeoxycholic acid],chemopreventive effect paralleled by MHC antigen alterations,[4],paralleled by alterations in the expression of these antigens
"C=C1CC[C@H](O)C/C1=C/C=C1\CCC[C@]2(C)[C@@H]([C@H](C)CCCC(C)C)CC[C@@H]12 [vitamin D3, cholecalciferol]",inhibition of colon carcinogenesis incidence,[5],inhibit the incidence of colon carcinogenesis
